Laboratory results reported in patent US7119064B2, “Use of colostrinin, constituent peptides thereof, and analogs thereof as modulators of intracellular signaling molecules” (Board of Regents, The University of Texas System, priority 1999, dated 2006).
Marks after values point to notes of the source that are not given here.

What was measured:
Assay type in all cases: cell-based
[1] = tested on: JNK; test: 4HNE-induced JNK activation, Western blot with anti-phospho-(Thr-183/Tyr-185) JNK antibody; conditions: PC12 cells
Protocol: Western blot analysis: PC12 cells were plated at 7×10^6 cells/T75 flask. After exposure to 4HNE, colostrinin or their combination, cells were collected and lysed in 50 millimolar (mM) Tris, 5 mM EDTA, 150 mM NaCl, 0.5% NP-40, 10% glycerol and protease inhibitor cocktail (supplemented with 1 mM Na3VO4, 2 mM EDTA, 1 mM phenylmethylsulfonyl fluoride). Lysates were centrifuged at 14,000g for 10 minutes (min) (4° C.) and 40 μg of protein was fractionated on a 10% SDS-polyaciylamide gel and transferred to protein-optimized membranes (Amersham, Inc.). p53 was detected using specific antibody (DO1; Santa Cruz Biotechnology, Inc.) at a dilution of 1:300. Adducts were detected using an antibody to HNE-protein adducts (Phanningen, Inc.) at a dilution of 1:500. The anti-phospho-JNK antibody (New England Biolabs, Inc., Beverly, Mass.) was raised against a synthetic phosphopeptide (SFMMT*PY*VVTRYYR) corresponding to residues 179–193 of JNK. […]
The effect of CLN on 4HNE-induced activation of JNK in PC12 cells was investigated. The activation of JNK was monitored by Western blot analysis using a highly specific anti-phospho- (Thr-183/Tyr-185) JNK antibody (Materials and Methods).

[2] = tested on: intracellular GSH in PC12 cells; test: Intracellular glutathione (GSH) level, o-phthalaldehyde fluorimetry
Protocol: Measurement of glutathione (GSH): In brief, PC12 cells were mock- or pre-treated with CLN or lactalbumin hydrolysate (LAH), both in 10 μg/ml concentration and then exposed to 4HNE (25 nM). PBS-washed (twice) cells were then extracted with 25% (w/v) metaphosphoric acid solution containing 5 mM EDTA. After ultracentrifugation (105,000 g for 30 min), 100 μl of 100 mM phosphate solution (pH 8.0) containing 5 mM EDTA and 10 μl of o-phthalaldehyde OPA(OPD; Molecular Probes, Inc.) was added to the supernatant, and the fluorescence intensity at 420 nm determined with excitation set at 350 nm (A. P. Senft et al., Anal Biochem., 280:80–86 (2000)).
To investigate whether the anti-oxidant effect of CLN was due to protection of intracellular GSH levels, PC12 cells were pre-treated (with CLN or LAH) and exposed to 4HNE, as described above, and changes in GSH levels were determined fluorimetrically. […] OPA (o-phthalaldehyde or phthalic dicarboxaldehyde) is highly fluorescent when it is conjugated to GSH (A.P. Senft et al., Anal Biochem., 280:80–86 (2000)).

[3] = tested on: GSH extrusion from PC12 cells; test: Reduced GSH in extracellular fluid (GSH extrusion); conditions: 4HNE, relative to CLN- or mock-treated cells
Protocol: To determine whether the loss of intracellular GSH was due to it's extrusion from the cells or oxidation, the level of reduced GSH in the extra-cellular fluid was evaluated.

[4] = tested on: 4HNE-protein adducts in PC12 cells; test: 4HNE-protein adduct formation, fluorescent microscopy (immunocytochemistry); conditions: 4HNE 25 nM or H2O2 100 μM alone
Source text: Cell cultures: Pheochromocytoma (PC12) cells were provided by Dr. Regino Perez-Polo (University of Texas Medical Branch, Department of Human Biological Chemistry and Genetics) and maintained in EMEM supplemented with 10% fetal bovine serum, penicillin (100 IU/mI) and streptomycin (100 micrograms per milliliter (μg/ml)). Exponentially growing populations of PC12 cells were sub-cultured and used for all experiments.
Immunocytochemistry: PC12 cells grown on cover-slips were fixed overnight in PBS containing 2% paraformaldehyde at 4° C. Cells were permeabilized by 0.3% Triton X-100, washed in PBS then incubated with primary antibody in PBS containing 0.05% Tween 20 (PBS-T). After washing 3 times in PBS-T, FITC-labeled anti-rabbit IgG (Santa Cruz Biotechnology Inc.) was added. Cells were washed (5 times, for 10 min) with PBS-T and mounted on microscope slides in anti-fade solution (Dako, Inc.). Images of cellular immunofluorescence were acquired using a NIKON Eclipse TE300 scanning microscope.
Fluorescent microscopy and Western blot analysis was undertaken to investigate the extent of 4HNE protein-adduct formation in cultures of PC12 cells in the presence of CLN. Cells were pretreated with CLN or LAH in the presence or absence of 4HNE and then analyzed for the formation of 4HNE-protein adducts.

[5] = tested on: 4HNE-protein adducts in PC12 cells; test: 4HNE-protein adduct levels, Western blot analysis; conditions: 4HNE 25, 12.5, 6.2 nM alone
Protocol: (§1) Western blot analysis: PC12 cells were plated at 7×10^6 cells/T75 flask. After exposure to 4HNE, colostrinin or their combination, cells were collected and lysed in 50 millimolar (mM) Tris, 5 mM EDTA, 150 mM NaCl, 0.5% NP-40, 10% glycerol and protease inhibitor cocktail (supplemented with 1 mM Na3VO4, 2 mM EDTA, 1 mM phenylmethylsulfonyl fluoride). Lysates were centrifuged at 14,000g for 10 minutes (min) (4° C.) and 40 μg of protein was fractionated on a 10% SDS-polyaciylamide gel and transferred to protein-optimized membranes (Amersham, Inc.). p53 was detected using specific antibody (DO1; Santa Cruz Biotechnology, Inc.) at a dilution of 1:300. Adducts were detected using an antibody to HNE-protein adducts (Phanningen, Inc.) at a dilution of 1:500. The anti-phospho-JNK antibody (New England Biolabs, Inc., Beverly, Mass.) was raised against a synthetic phosphopeptide (SFMMT*PY*VVTRYYR) corresponding to residues 179–193 of JNK. For visualization of primary antibody binding, all blots were incubated with horseradish peroxidase-conjugated secondary antibody (Amersham, Inc.) at a dilution of 1:2000, followed by chemiluminescence detection (Amersham, Inc.) and autoradiography.
To confirm the results generated by immunochemistry, Western blot analysis was used to investigate changes in 4HNE-protein adduct levels in cells treated with 4HNE alone or CLN plus 4HNE.

[6] = tested on: PC12 cells; test: 4HNE-induced apoptosis, annexin V-PE / 7-AAD flow cytometry
Protocol: FIG. 8. […] PC12 cells were treated with CLN (1 μg per ml) for 15 min and 4HNE (100 nM) was added. Twenty four hours later, cells were harvested and stained with annexin V-PE and 7-AAD. 1, solvent alone; 2, 100 nM 4HNE; 3, TROLOX (vitamin E) 4, col (internal control)+100 nM 4HNE; 5, CLN alone (1 μg per ml); 6, CLN (1 μg per ml)+100 nM 4HNE.
Apoptosis is a specific mode of cell death recognized by a characteristic pattern of morphological, biochemical, and molecular changes. Currently the hallmark of apoptosis in vitro is DNA fragmentation and changes in plasma membrane reorganization that allows for the surface expression of phosphatidyl-D-serine and result in increased membrane permeability. The protection of cells against 4HNE by CLN using increased permeability and cell membrane expression of phosphatidyl-D-serine was investigated.
Cells were simultaneously labeled with fluorochrome-conjugated annexin V-PE (detecting PS asymmetry in the plasma membrane, an early marker of apoptosis), 7-aminoactinomycin D (7-AAD) (detecting increased membrane permeability associated with both apoptosis and necrosis). A dual laser flow cytometer (either a Becton-Dickinson FACScan) was used for the simultaneous detection of the PE-conjugated annexin V (which is excited at […]), 7-AAD (excited at 488 nm and emitting at 670 nm). […]

[7] = tested on: p53; test: 4HNE-induced activation of p53, Western blot; conditions: 4HNE-treated PC12 cells
Protocol: as §1
Whether CLN could modulate p53 levels after 4HNE exposure was also investigated.

[8] = tested on: SH-SY5Y cells; test: Protection against retinoic acid toxicity in SH-SY5Y cells, microscopic grading; conditions: for DIFFERENTIATION: Retinoic Acid 20 μM (Day 1) alone
Protocol: (§2) Retinoic Acid was left on the plate for the duration of the experiment or until washed off. Colostrinin was added to the plate at the indicated doses. When added on Day 1, it was present during the entire experiment. When added on Day 5, it was incubated on the plate for 30 minutes at 37° C. and then removed. The wells were washed twice with PBS before adding β-Amyloid. Cultures were then observed under the microscope and graded.

[9] = tested on: SH-SY5Y cells; test: Anti-apoptotic activity against β-amyloid toxicity in SH-SY5Y cells, microscopic grading; conditions: Beta-amyloid 10 μg/ml added on day 5
Protocol: as §2, with “To determine whether this was reproducible and to determine the potency of CLN to inhibit retinoic acid toxicity, two concentration of retinoic acid were used to treat cells on day one of the experiment, 20 μM and 40 μM. *Control wells were mock-treated for the duration of the experiment. Retinoic” for “Retinoic”

For `CCCCCC(O)/C=C/C=O` (centres unmarked) [4HNE], which “JNK phosphorylation, 4HNE alone” value ([1]; 4HNE 25 nM alone) is on record?
Its value is “potent inducer of JNK phosphorylation”.

What about the “loss of GSH” value ([2]; 4HNE 25 nM) of the same molecule?
Its value is “more than 50%”.

What about the “intracellular GSH levels, 4HNE alone” value ([2]; 4HNE alone for 30 min) of the same molecule?
The value was “significant reduction of intracellular GSH levels”.

And the “OPA-GSH-mediated fluorescence of extracellular fluid” value [3]?
Its value is “significant increase in OPA-GSH-mediated fluorescence”.

And the “4HNE-protein adduct fluorescence, inducer alone” value [4]?
Its value is “bright fluorescence”.

And the “4HNE-protein adduct levels (Western blot), 4HNE alone” value [5]?
The value was “significant increase in levels of 4HNE-protein adducts”.

What about the “toxic effects / induction of apoptosis” value ([6]; 4HNE 25 nM, PC12 cells) of the same molecule?
Its value is “did not show toxic effects or induce apoptosis”.

And the “apoptosis, 4HNE alone” value ([6]; 4HNE 100 nM)?
The value was “Induction of apoptosis”.

And the “p53 activation, 4HNE alone” value [7]?
The value was “induced its activation”.

For `Nc1ncnc2c1nc(Sc1ccc(Cl)cc1)n2[C@@H]1O[C@@H]2COP(=O)(O)O[C@H]2[C@H]1O` [8-(4-chlorophenylthio)-cAMP], which “4HNE-induced JNK phosphorylation” value ([1]; pretreatment with inhibitor of JNK activation) is on record?
The value was “prevented 4HNE-induced JNK phosphorylation”.

How did the “4HNE-protein adduct fluorescence, inducer alone” value [4] turn out when `OO` [H2O2] was run?
The value was “bright fluorescence”.

`CC1=C(/C=C/C(C)=C/C=C/C(C)=C/C(=O)O)C(C)(C)CCC1` [Retinoic Acid] was tested. Which DIFFERENTIATION ([8]; cells observed Day 2) did it give?
The DIFFERENTIATION was “++++ (Day 2)^b (++++ Approximately 100% of the cells)”.

And the DIFFERENTIATION ([8]; cells observed Day 8)?
The DIFFERENTIATION was “+ (Day 8)^b (+ Approximately 25% of the cells)”.

What about the “onset of toxicity, retinoic acid alone” value ([8]; retinoic acid 20 μM) of the same molecule?
The value was “started showing signs of toxicity by day 6”.

And the “cell morphology, retinoic acid alone (FIG. 6F)” value ([8]; retinoic acid 20 μM added on day 1)?
The value was “Toxic (apoptotic) effect”.

And the “toxicity, retinoic acid alone” value ([8]; retinoic acid 40 μM)?
The value was “the toxicity developed too rapidly”.

With β-Amyloid as the molecule, how does the “cell morphology, Beta-amyloid alone (FIG. 6B)” value [9] read?
Its value is “show its toxicity”.
